Experiments:
[1] = test system: HDAC in cells; assay: Cellular HDAC inhibition (cellular histone hyperacetylation assays); assay type: cell-based; conditions: cellular assay, cell line not stated
Method: 2) Cellular Histone Hyperacetylation Assays:
These two secondary assays evaluates a compound's ability to inhibit HDAC in cells by measuring cellular histone acetylation levels. The cytoblot facilitates quantitative EC50 information for cellular HDAC inhibition. Transformed cell lines (e.g. HeLa, A549, MCF-7) are cultured under standard media and culture conditions prior to plating.
Cells (approx. 2,500/well) are allowed to adhere 10-24 hours to wells of a 384-well Greiner PS assay plate in media containing 1-5% serum. Cells are treated with appropriate compound and specific concentrations for 0 to 24 hours. Cells are washed once with PBS (60 μL) and then fixed (95% ethanol, 5% acetic acid or 2% PFA) for 1 minute at RT (30 μL). Cells are blocked with 1% BSA for 1 hour and washed and stained with antibody (e.g. anti-Acetylated Histone H3, Upstate Biotechnology), followed by washing and incubation with an appropriate secondary antibody conjugated to HRP or fluorophore. For luminescence assays, signal is generated using Luminol substrate (Santa Cruz Biotechnology) and detected using an Aquest plate reader (Molecular Devices).
Cells (4×10^5/well) are plated into Corning 6-well dish and allowed to adhere overnight. Cells are treated with compound at appropriate concentration for 12-18 hours at 37° C. Cells are washed with PBS on ice. Cells are dislodged with rubber policeman and lysed in buffer containing 25 mM Tris, pH7.6; 150 mM NaCl, 25 mM MgCl2, 1% Tween-20, and nuclei collected by centrifugation (7500 g). Nuclei are washed once in 25 mM Tris, pH7.6; 10 mM EDTA, collected by centrifugation (7500 g). Supernatant is removed and histones are extracted using 0.4 M HCl. Samples are centrifuged at 14000 g and supernatants are precipitated in 1 ml cold acetone. The histone pellet is dissolved in water and histones are separated and analyzed by SDS-PAGE Coomassie and immunoblotting (anti-acetylated histone antibodies, Upstate Biotechnology) using standard techniques.

[2] = test system: HDAC; assay: In vitro HDAC-inhibition assay (Fluor de Lys fluorescent substrate); assay type: biochemical; conditions: HDAC enzyme source
Method: 1) In Vitro HDAC-Inhibition Assay:
This assay measures a compound's ability to inhibit acetyl-lysine deacetylation in vitro and was used as both a primary screening method as well as for IC50 determinations of confirmed inhibitors. The assay is performed in vitro using an HDAC enzyme source (e.g. partially purified nuclear extract or immunopurified HDAC complexes) and a proprietary fluorescent substrate/developer system (HDAC Quantizyme Fluor de Lys Fluorescent Activity Assay, BIOMOL). The assay is run in 1,536-well Greiner white-bottom plates using the following volumes and order of addition:
Step 1: Enzyme (2.5 μL) source added to plate (from refrigerated container)
Step 2: Compounds (50 nL) added with pin transfer device
Step 3: Fluor de Lys (2.5 μL) substrate added, incubate at RT, 30 minutes
Step 4: Developer (5 μL) solution is added (containing TSA), to stop reaction
Step 5: Plate Reader—data collection
The deacetylated fluorophore is excited with 360 nm light and the emitted light (460 nm) is detected on an automated fluorometric plate reader (Aquest, Molecular Devices).

IC50 [1]	IC50 [2]	Structure (SMILES)
< 1 µM	< 1 µM	CC(=O)SCC(=O)c1ccc(NS(=O)(=O)c2ccc(OCCCN(C)C)cc2)nc1 [Example 1, Thioacetic acid S-(2-{6-[4-(3-dimethylamino-propoxy)-benzenesulfonylamino]-pyridin-3-yl}-2-oxo-ethyl)ester]
< 1 µM	< 1 µM	CC(=O)SCC(=O)c1ccc(NS(=O)(=O)c2ccc(OCCN(C)C)cc2)nc1 [Example 2, Thioacetic acid S-(2-{6-[4-(2-dimethylamino-ethoxy)-benzenesulfonylamino]-pyridin-3-yl}-2-oxo-ethyl) ester]
< 1 µM		CC(=O)SCC(=O)c1ccc(NS(=O)(=O)c2ccc(OCC(C)(C)CN(C)C)cc2)nc1 [Example 3, Thioacetic acid S-(2-{6-[4-(3-dimethylamino-2,2-dimethyl-propoxy)-benzenesulfonylamino]-pyridin-3-yl}-2-oxo-ethyl) ester]

Structure (SMILES)	IC50 [1]	IC50 [2]
CC(=O)SCC(=O)c1ccc(NS(=O)(=O)c2ccc(OCCCCN(C)C)cc2)nc1 [Example 4, Thioacetic acid S-(2-{6-[4-(4-dimethylamino-butoxy)-benzenesulfonylamino]-pyridin-3-yl}-2-oxo-ethyl) ester]	< 1 µM	< 1 µM
